From patent US20240090503A1, “FUNGICIDAL OXADIAZOLES AND THEIR MIXTURES” (FMC CORPORATION, priority 2020, published 2024)
Marks after values point to notes of the source that are not given here.

Assays:
Assay type in all cases: in vivo
[1] = system: Phakopsora pachyrhizi (the causal agent of Asian soybean rust); test: Test A: preventive spray on soybean seedlings, Asian soybean rust, visual disease rating; conditions: soybean seedlings; for pest or weed control at 50 µg/mL: test suspension 50 ppm
Method in brief: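 Preventive test: soybean seedlings received a run-off spray of compound suspended at the set ppm in 50/50 acetone/water plus 250 ppm PEG400, and one day later a P. pachyrhizi spore inoculum. Visual scoring (0 none to 100 full disease control) followed 24 h saturated incubation and 8 days' growth chamber, both at 22° C.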

[2] = system: Zymoseptoria tritici (the causal agent of wheat leaf blotch); test: Test B: preventive spray on wheat seedlings, wheat leaf blotch, visual disease rating; conditions: test suspension 250 ppm, wheat seedlings; for pest or weed control at 250 µg/mL: Zymoseptoria tritici, 456 h
Method in brief: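 This is a preventive test: spray application preceded Zymoseptoria tritici spore inoculation by one day. Test suspensions were in acetone/water with 250 ppm PEG400 surfactant, at the listed ppm rate. After 48 h saturated humidity at 24° C and 17 days at 20° C, visual ratings scored control from 0 to 100%.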

[3] = system: Puccinia recondita f. sp. tritici (the causal agent of wheat leaf rust); test: Test C: preventive spray on wheat seedlings, wheat leaf rust, visual disease rating; conditions: wheat seedlings; for pest or weed control at 50 µg/mL: test suspension 50 ppm
Method in brief: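 Wheat seedlings sprayed to run-off with compound in acetone/water (50/50) with 250 ppm PEG400, then inoculated with spores the following day. After 24 h saturated humidity at 20° C. and 6 days in growth chamber at 20° C., disease rated visually as % control relative to untreated controls.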

[4] = test suspension 10 ppm, 100 = 100% disease control, 0 = no control

| Compound | Test A disease control rating [1, 4] | Test B disease control rating [2] | Test C disease control rating ([3]; test suspension 10 ppm) | other results |
| --- | --- | --- | --- | --- |
| O=C(c1coc(Cc2ccc(-c3noc(C(F)(F)F)n3)cc2)n1)N1CCCC1 [compound 227] | 100% | 99* % | 97% |  |
| O=C(c1coc(Cc2ccc(-c3noc(C(F)(F)F)n3)cc2)n1)N1CCC(F)(F)CC1 [compound 228] | 100% | 99* % | 79% |  |
| CC(C)(C#N)NC(=O)c1coc(Cc2ccc(-c3noc(C(F)(F)F)n3)cc2)n1 [compound 230] | 100% | 99* % | 99% |  |
| N#CC1(NC(=O)c2coc(Cc3ccc(-c4noc(C(F)(F)F)n4)cc3)n2)CC1 [compound 231] | 100% | 95* % | 97% |  |
| O=c1cc(-c2noc(C(F)(F)F)n2)ccn1Cc1ccccc1F [compound 232] |  |  |  | pest or weed control at 250 µg/mL ([1]; Phakopsora pachyrhizi, 216 h, test suspension 250 ppm): 100%; pest or weed control at 250 µg/mL [2]: 68%; pest or weed control at 250 µg/mL ([3]; Puccinia recondita, 168 h, test suspension 250 ppm): 100% |
| COc1cccc(Cn2ccc(-c3noc(C(F)(F)F)n3)cc2=O)c1 [compound 233] |  |  |  | pest or weed control at 50 µg/mL ([1]; Phakopsora pachyrhizi, 216 h): 97%; pest or weed control at 250 µg/mL [2]: 90%; pest or weed control at 50 µg/mL ([3]; Puccinia recondita, 168 h): 100% |
| CCOC(=O)c1cnn(Cn2ccc(-c3noc(C(F)(F)F)n3)cc2=O)c1 [compound 234] | 100% | 87* % | 88% |  |
| CCc1nn(Cc2ccc(-c3noc(C(F)(F)F)n3)cc2)c(=O)n1C [compound 235] |  | 87% |  | Test A disease control rating ([1]; test suspension 250 ppm): 100%; Test C disease control rating ([3]; test suspension 250 ppm): 100% |
| Cn1c(C2CC2)nn(Cc2ccc(-c3noc(C(F)(F)F)n3)cc2)c1=O [compound 236] |  | 83% |  | Test A disease control rating ([1]; test suspension 250 ppm): 100%; Test C disease control rating ([3]; test suspension 250 ppm): 100% |
| CC(C)c1nn(Cc2ccc(-c3noc(C(F)(F)F)n3)cc2)c(=O)n1C [compound 237] |  | 94% |  | Test A disease control rating ([1]; test suspension 250 ppm): 100%; Test C disease control rating ([3]; test suspension 250 ppm): 100% |
| CCCc1nn(Cc2ccc(-c3noc(C(F)(F)F)n3)cc2)c(=O)n1C [compound 238] |  | 87% |  | Test A disease control rating ([1]; test suspension 250 ppm): 100%; Test C disease control rating ([3]; test suspension 250 ppm): 100% |
| Cn1c(C(F)(F)F)nn(CCc2ccc(-c3noc(C(F)(F)F)n3)cc2)c1=O [compound 239] |  | 0% |  | Test A disease control rating ([1]; test suspension 250 ppm): 100%; Test C disease control rating ([3]; test suspension 250 ppm): 100% |
| Cn1c(C(F)(F)F)nn(CCCc2ccc(-c3noc(C(F)(F)F)n3)cc2)c1=O [compound 240] |  | 4% |  | Test A disease control rating ([1]; test suspension 250 ppm): 100%; Test C disease control rating ([3]; test suspension 250 ppm): 100% |
| CCOC(=O)c1coc(Cc2ccc(-c3noc(C(F)(F)F)n3)cc2)n1 [compound 252] | 100% | 92* % | 84% |  |
| O=C(O)c1coc(Cc2ccc(-c3noc(C(F)(F)F)n3)cc2)n1 [compound 253] | 98% | 46* % | 74% |  |
| NC(=O)c1coc(Cc2ccc(-c3noc(C(F)(F)F)n3)cc2)n1 [compound 254] | 100% | 70* % | 100% |  |
| N#Cc1coc(Cc2ccc(-c3noc(C(F)(F)F)n3)cc2)n1 [compound 256] | 100% | 98* % | 99% |  |
| N#CCNC(=O)c1coc(Cc2ccc(-c3noc(C(F)(F)F)n3)cc2)n1 [compound 258] | 100% | 99* % | 99% |  |

| Compound | Test A disease control rating [1, 4] | Test B disease control rating [2] | Test C disease control rating ([3]; test suspension 10 ppm) | other results |
| --- | --- | --- | --- | --- |
| CC(C)NC(=O)c1coc(Cc2ccc(-c3noc(C(F)(F)F)n3)cc2)n1 [compound 259] | 100% | 99* % | 99% |  |
| O=C(NC1CC1)c1coc(Cc2ccc(-c3noc(C(F)(F)F)n3)cc2)n1 [compound 260] | 100% | 47* % | 100% |  |
| O=C(c1coc(Cc2ccc(-c3noc(C(F)(F)F)n3)cc2)n1)N1CCC1 [compound 261] | 100% | 88* % | 99% |  |
| CCN(CC)C(=O)c1coc(Cc2ccc(-c3noc(C(F)(F)F)n3)cc2)n1 [compound 262] | 100% | 96* % | 98% |  |
| Cn1ccc(CNC(=O)c2coc(Cc3ccc(-c4noc(C(F)(F)F)n4)cc3)n2)n1 [compound 265] | 100% | 93* % | 100% |  |
| CCOC(=O)c1cnn(Cc2cccc(-c3noc(C(F)(F)F)n3)c2)c1 [compound 276] |  |  |  | pest or weed control at 50 µg/mL ([1]; Phakopsora pachyrhizi, 216 h): 100%; pest or weed control at 250 µg/mL [2]: 35%; pest or weed control at 50 µg/mL ([3]; Puccinia recondita, 168 h): 80% |
| O=C(NCc1nccs1)c1coc(Cc2ccc(-c3noc(C(F)(F)F)n3)cc2)n1 [compound 277] | 100% | 99* % | 100% |  |
| COC(CNC(=O)c1coc(Cc2ccc(-c3noc(C(F)(F)F)n3)cc2)n1)OC [compound 278] | 100% | 98* % | 100% |  |
| COCC(COC)NC(=O)c1coc(Cc2ccc(-c3noc(C(F)(F)F)n3)cc2)n1 [compound 279] | 100% | 94* % | 100% |  |
| CCNC(=O)c1coc(Cc2ccc(-c3noc(C(F)(F)F)n3)cc2)n1 [compound 280] | 100% | 99* % | 99% |  |
| O=C(NCC(F)(F)F)c1ccc(Cc2ccc(-c3noc(C(F)(F)F)n3)cc2)cc1 [compound 281] | 100% | 34* % | 95% |  |
| N#CCNC(=O)c1ccc(Cc2ccc(-c3noc(C(F)(F)F)n3)cc2)cc1 [compound 283] | 100% | 0* % | 98% |  |
| COCCNC(=O)c1cccc(Cc2ccc(-c3noc(C(F)(F)F)n3)cc2)c1 [compound 284] | 100% | 91* % | 100% |  |
| N#CCNC(=O)c1cccc(Cc2ccc(-c3noc(C(F)(F)F)n3)cc2)c1 [compound 285] | 100% | 94* % | 97% |  |
| O=C(NCC(F)(F)F)c1csc(Cc2ccc(-c3noc(C(F)(F)F)n3)cc2)c1 [compound 286] | 100% | 3* % | 100% |  |
| COCCNC(=O)c1csc(Cc2ccc(-c3noc(C(F)(F)F)n3)cc2)c1 [compound 287] | 100% | 98* % | 100% |  |
| N#CCNC(=O)c1csc(Cc2ccc(-c3noc(C(F)(F)F)n3)cc2)c1 [compound 288] | 100% | 91* % | 100% |  |
| O=C(NCCn1cccn1)c1csc(Cc2ccc(-c3noc(C(F)(F)F)n3)cc2)c1 [compound 289] | 100% | 80* % | 100% |  |
